Data published in patent US11098032B2, “Pyran dervatives as CYP11A1 (cytochrome P450 monooxygenase 11A1) inhibitors” (ORION CORPORATION, priority 2016, dated 2021).

Each compound was assayed against T1, CYP11A1 (Homo sapiens, UniProt P05108) (assay: CYP11A1 inhibition: modified isocaproic acid release assay (IARA) in H295R cells). Settings: human H295R adrenocortical carcinoma cells treated three days, 3 nM [24,25-3H]-labelled cholesterol, 1% DMSO, 10 concentrations in duplicates; read-out: IC50 of the test compounds on CYP11A1 inhibition.
T1 construct: human H295R adrenocortical carcinoma cell line was used as source of enzyme; endogenous in cells; host or cells: H295R human adrenocortical carcinoma cells
T1 sequence (P05108 40-521): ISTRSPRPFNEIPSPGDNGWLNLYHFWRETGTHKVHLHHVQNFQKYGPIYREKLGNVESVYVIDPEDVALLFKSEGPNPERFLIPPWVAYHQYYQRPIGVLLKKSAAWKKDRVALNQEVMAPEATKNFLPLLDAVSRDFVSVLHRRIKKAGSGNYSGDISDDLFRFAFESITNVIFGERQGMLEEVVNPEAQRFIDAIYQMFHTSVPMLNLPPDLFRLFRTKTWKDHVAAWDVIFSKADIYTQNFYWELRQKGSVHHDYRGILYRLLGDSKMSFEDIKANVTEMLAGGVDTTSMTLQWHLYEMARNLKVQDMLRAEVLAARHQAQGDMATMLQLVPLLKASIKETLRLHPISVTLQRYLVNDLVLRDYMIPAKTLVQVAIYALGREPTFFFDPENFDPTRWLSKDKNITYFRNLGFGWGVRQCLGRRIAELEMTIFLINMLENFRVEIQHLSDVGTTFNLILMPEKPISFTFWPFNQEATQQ
Format: cell-based
Outline: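 Cholesterol side-chain cleavage followed as tritiated isocaproic acid in charcoal-extracted medium, counted by scintillation. Substrate was 3 nM [24,25-3H]-cholesterol on human H295R cells exposed for three days to ten compound concentrations (duplicates, 1% DMSO); IC50 derived.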

Structure (SMILES) | IC50 [µM]
CN(C)C(=O)c1cc(F)c(COc2coc(CN3Cc4ccccc4C3)cc2=O)c(F)c1 [Compound 172, 3,5-Difluoro-4-(((6-(isoindolin-2-ylmethyl)-4-oxo-4H-pyran-3-yl)oxy)methyl)-N,N-dimethylbenzamide] | < 0.15
CS(=O)(=O)NCC1CCC(COc2coc(CN3Cc4ccccc4C3)cc2=O)CC1 (stereo not drawn) [Compound 173, N-((4-(((6-(Isoindolin-2-ylmethyl)-4-oxo-4H-pyran-3-yl)oxy)methyl)cyclohexyl)-methyl)methanesulfonamide] | < 0.15
CN(C)C(=O)c1c(F)cc(COc2coc(CN3Cc4ccccc4C3)cc2=O)cc1F [Compound 174, 2,6-Difluoro-4-(((6-(isoindolin-2-ylmethyl)-4-oxo-4H-pyran-3-yl)oxy)methyl)-N,N-dimethylbenzamide] | 0.15 to 0.3
O=c1cc(CN2Cc3ccccc3C2)occ1OCC1CCC(CN2CCCS2(=O)=O)CC1 (stereo not drawn) [Compound 176, 5-((4-((1,1-Dioxidoisothiazolidin-2-yl)methyl)cyclohexyl)methoxy)-2-(isoindolin-2-ylmethyl)-4H-pyran-4-one] | < 0.15
CS(=O)(=O)N1[C@@H]2CC[C@H]1CC(COc1coc(CN3Cc4ccccc4C3)cc1=O)C2 (stereo partly drawn) [Compound 177, 2-(Isoindolin-2-ylmethyl)-5-(((1R,5S)-8-(methylsulfonyl)-8-azabicyclo[3.2.1]-octan-3-yl)methoxy)-4H-pyran-4-one] | 0.15 to 0.3
COC(=O)[C@H]1CC[C@H](COc2coc(CN3Cc4ccccc4C3)cc2=O)CC1 [Compound 178, Methyl (1r,4r)-4-(((6-(isoindolin-2-ylmethyl)-4-oxo-4H-pyran-3-yl)oxy)methyl)-cyclohexane-1-carboxylate] | 0.301 to 2
CS(=O)(=O)N1CCC(COc2coc(CN3CCc4ccccc4C3)cc2=O)CC1 [Compound 179, 2-((3,4-Dihydroisoquinolin-2(1H)-yl)methyl)-5-((1-(methylsulfonyl)piperidin-4-yl)methoxy)-4H-pyran-4-one] | 0.301 to 2
O=C1NCc2cc(COc3coc(CN4Cc5ccccc5C4)cc3=O)ccc21 [Compound 180, 5-(((6-(Isoindolin-2-ylmethyl)-4-oxo-4H-pyran-3-yl)oxy)methyl)isoindolin-1-one] | 0.15 to 0.3
CN(C)C(=O)N1CCC(COc2coc(CN3Cc4ccc(F)cc4C3)cc2=O)CC1 [Compound 181, 4-(((6-((5-Fluoroisoindolin-2-yl)methyl)-4-oxo-4H-pyran-3-yl)oxy)methyl)-N,N-dimethylpiperidine-1-carboxamide] | 0.15 to 0.3
CC(C)(C)OC(=O)N1CCC(COc2coc(CN3Cc4ccccc4C3)cc2=O)C1 (stereo not drawn) [Compound 182, tert-Butyl 3-(((6-(isoindolin-2-ylmethyl)-4-oxo-4H-pyran-3-yl)oxy)methyl)-pyrrolidine-1-carboxylate] | 0.301 to 2
CN(C)C(=O)N1CCC(COc2coc(CN3Cc4ccccc4C3)cc2=O)C1 (stereo not drawn) [Compound 183, 3-(((6-(Isoindolin-2-ylmethyl)-4-oxo-4H-pyran-3-yl)oxy)methyl)-N,N-dimethyl-pyrrolidine-1-carboxamide] | 0.301 to 2
CS(=O)(=O)N1CCC(COc2coc(CN3Cc4ccc(C(F)(F)F)cc4C3)cc2=O)CC1 [Compound 184, 5-((1-(Methylsulfonyl)piperidin-4-yl)methoxy)-2-((5-(trifluoromethyl)isoindolin-2-yl)methyl)-4H-pyran-4-one] | < 0.15
CS(=O)(=O)N1CCC(COc2coc(CN3Cc4ccccc4C3)cc2=O)CC1 [Compound 185, 2-(Isoindolin-2-ylmethyl)-5-((1-(methylsulfonyl)piperidin-4-yl)methoxy)-4H-pyran-4-one] | < 0.15

Now from value to compound:

IC50 [µM] | Structure (SMILES)
< 0.15 | CS(=O)(=O)N1CCC(COc2coc(CN3Cc4ccc(F)cc4C3)cc2=O)CC1 [Compound 186, 2-((5-Fluoroisoindolin-2-yl)methyl)-5-((1-(methylsulfonyl)piperidin-4-yl)-methoxy)-4H-pyran-4-one]
< 0.15 | O=c1cc(CN2Cc3ccccc3C2)occ1OCC1CCN(S(=O)(=O)C2CC2)CC1 [Compound 187, 5-((1-(Cyclopropylsulfonyl)piperidin-4-yl)methoxy)-2-(isoindolin-2-ylmethyl)-4H-pyran-4-one]
< 0.15 | CCS(=O)(=O)N1CCC(COc2coc(CN3Cc4ccccc4C3)cc2=O)CC1 [Compound 188, 5-((1-(Ethylsulfonyl)piperidin-4-yl)methoxy)-2-(isoindolin-2-ylmethyl)-4H-pyran-4-one]
< 0.15 | CCS(=O)(=O)N1CCC(COc2coc(CN3Cc4ccc(F)cc4C3)cc2=O)CC1 [Compound 189, 5-((1-(Ethylsulfonyl)piperidin-4-yl)methoxy)-2-((5-fluoroisoindolin-2-yl)methyl)-4H-pyran-4-one]
< 0.15 | O=c1cc(CN2Cc3ccc(F)cc3C2)occ1OCC1CCN(S(=O)(=O)C2CC2)CC1 [Compound 190, 5-((1-(Cyclopropylsulfonyl)piperidin-4-yl)methoxy)-2-((5-fluoroisoindolin-2-yl)methyl)-4H-pyran-4-one]
0.15 to 0.3 | CC1(COc2coc(CN3Cc4ccccc4C3)cc2=O)CCN(S(C)(=O)=O)CC1 [Compound 191, 2-(Isoindolin-2-ylmethyl)-5-((4-methyl-1-(methylsulfonyl)piperidin-4-yl)-methoxy)-4H-pyran-4-one]
< 0.15 | CCS(=O)(=O)N1CCC(C)(COc2coc(CN3Cc4ccccc4C3)cc2=O)CC1 [Compound 192, 5-((1-(Ethylsulfonyl)-4-methylpiperidin-4-yl)methoxy)-2-(isoindolin-2-ylmethyl)-4H-pyran-4-one]
0.301 to 2 | CS(=O)(=O)N1CCC(COc2coc(CN3Cc4ccccc4C3)cc2=O)C(O)C1 (stereo not drawn) [Compound 193, 5-((3-Hydroxy-1-(methylsulfonyl)piperidin-4-yl)methoxy)-2-(isoindolin-2-yl-methyl)-4H-pyran-4-one]
0.15 to 0.3 | Cc1ccc(S(=O)(=O)N=S2(=O)CCC(COc3coc(CN4Cc5ccccc5C4)cc3=O)CC2)cc1 (stereo not drawn) [Compound 194, N-(4-(((6-(Isoindolin-2-ylmethyl)-4-oxo-4H-pyran-3-yl)oxy)methyl)-1-oxido-tetrahydro-2H-thiopyran-1-ylidene)-4-methylbenzenesulfonamide]
< 0.15 | CC(c1cc(=O)c(OCC2CCN(S(C)(=O)=O)CC2)co1)N1Cc2ccccc2C1 (stereo not drawn) [Compound 195]
< 0.15 | O=c1cc(CN2Cc3ccccc3C2)occ1OCC1CCSCC1 [Compound 196, 2-(Isoindolin-2-ylmethyl)-5-((tetrahydro-2H-thiopyran-4-yl)methoxy)-4H-pyran-4-one]
0.301 to 2 | CC(C)(C)OC(=O)N1CCC(CCOc2coc(CN3Cc4ccccc4C3)cc2=O)CC1 [Compound 197, tert-Butyl 4-(2-((6-(isoindolin-2-ylmethyl)-4-oxo-4H-pyran-3-yl)oxy)ethyl)-piperidine-1-carboxylate]
0.15 to 0.3 | CS(=O)(=O)N1CCC(CCOc2coc(CN3Cc4ccccc4C3)cc2=O)CC1 [Compound 198, 2-(Isoindolin-2-ylmethyl)-5-(2-(1-(methylsulfonyl)piperidin-4-yl)ethoxy)-4H-pyran-4-one]
0.15 to 0.3 | CC(C)(C)OC(=O)N1CC[C@@H](COc2coc(CN3Cc4ccccc4C3)cc2=O)C1 [Compound 199, (R)-tert-Butyl 3-(((6-(isoindolin-2-ylmethyl)-4-oxo-4H-pyran-3-yl)oxy)methyl)-pyrrolidine-1-carboxylate]
0.15 to 0.3 | CC(C)(C)OC(=O)N1CC[C@H](COc2coc(CN3Cc4ccccc4C3)cc2=O)C1 [Compound 200, (S)-tert-Butyl 3-(((6-(isoindolin-2-ylmethyl)-4-oxo-4H-pyran-3-yl)oxy)methyl)-pyrrolidine-1-carboxylate]
0.301 to 2 | CC(C)(C)OC(=O)N1CCC[C@H](COc2coc(CN3Cc4ccccc4C3)cc2=O)C1 [Compound 201, (S)-tert-Butyl 3-(((6-(isoindolin-2-ylmethyl)-4-oxo-4H-pyran-3-yl)oxy)methyl)-piperidine-1-carboxylate]
0.301 to 2 | CC(C)(C)OC(=O)N1CCC[C@@H](COc2coc(CN3Cc4ccccc4C3)cc2=O)C1 [Compound 202, (R)-tert-Butyl 3-(((6-(isoindolin-2-ylmethyl)-4-oxo-4H-pyran-3-yl)oxy)methyl)-piperidine-1-carboxylate]
0.301 to 2 | CC(C)(C)OC(=O)N1CCC(Oc2coc(CN3Cc4ccccc4C3)cc2=O)CC1 [Compound 203, tert-Butyl 4-((6-(isoindolin-2-ylmethyl)-4-oxo-4H-pyran-3-yl)oxy)piperidine-1-carboxylate]
< 0.15 | CS(=O)(=O)N1CCC(COc2coc(CN3Cc4ccc(OC(F)(F)F)cc4C3)cc2=O)CC1 [Compound 205, 5-((1-(Methylsulfonyl)piperidin-4-yl)methoxy)-2-((5-(trifluoromethoxy)-isoindolin-2-yl)methyl)-4H-pyran-4-one]
0.301 to 2 | CC(=O)N1CCC(CCOc2coc(CN3Cc4ccccc4C3)cc2=O)CC1 [Compound 206, 5-(2-(1-Acetylpiperidin-4-yl)ethoxy)-2-(isoindolin-2-ylmethyl)-4H-pyran-4-one]
